Assay results as given in US10550091B2, “1,4,5-substituted 1,2,3-triazole analogues as antagonists of the pregnane X receptor” (ST. JUDE CHILDREN'S RESEARCH HOSPITAL, priority 2016, dated 2020).
Like-named read-outs stand apart in the source and are kept apart here.

What was measured:
[1] = molecular target: human peroxisome proliferator-activated receptor gamma (PPARγ) (Homo sapiens, UniProt P37231); experiment: human peroxisome proliferator-activated receptor gamma (PPARγ) transactivation assay; format: cell-based
Procedure: Cells were maintained by following manufacturer's instruction. Briefly, PPARγ cells were maintained in matrigel-coated tissue culture flasks in DMEM supplemented with 10% dialyzed FBS, 0.1 mM non-essential amino acids, 1 mM sodium pyruvate, 25 mM HEPES, 100 μg/ml of hygromycin B, 500 μg/ml of geneticin, 100 units/ml penicillin and 100 μg/ml streptomycin. […] Assay medium containing DMSO without cells serves as background control.

hPXR [2] = molecular target: T1, hPXR (Homo sapiens (Human), UniProt O75469); experiment: hPXR transactivation assays (agonistic and antagonistic), HepG2 cells with CYP3A4-luciferase reporter; details: 24 h, NA = not active; for IC50: read-out: IC50 (antag), antagonistic assay, combined with 5 μM rifampicin; for EC50: read-out: EC50 (agon), agonistic assay, compound alone
Procedure: (§1) The hPXR transactivation assays (PXR agonistic and antagonistic assays) were performed in the HepG2 cells stably expressing FLAG-hPXR and CYP3A4-luciferase reporter. […] The luminescence signal was detected using an Envision plate reader (PerkinElmer Life Sciences).

[3] = molecular target: human retinoid X receptor beta (hRXRβ) (Homo sapiens, UniProt P28702); experiment: human retinoid X receptor beta (hRXRβ) transactivation assay; format: cell-based; details: for IC50: Anta = compound exhibited antagonism, read-out: RXRβ (Anta)
Procedure: Cells were maintained by following manufacturer's instruction. Briefly, RXRβ cells were maintained in DMEM supplemented with 10% dialyzed FBS, 0.1 mM non-essential amino acids, 25 mM HEPES, 100 μg/ml of hygromycin B, 100 μg/ml of zeocin, 100 units/ml penicillin and 100 μg/ml streptomycin.

HepG2 cells = experiment: HepG2 cytotoxicity assay (CellTiter Glo); format: cell-based; details: Homo sapiens, HepG2, 72 h, read-out: IC50 (cyto)
Source text: The luminescence signal was detected using an Envision plate reader (PerkinElmer Life Sciences).

hPXR [4] = molecular target: T1, hPXR
Procedure: as §1

[5] = molecular target: human glucocorticoid receptor (hGR) (Homo sapiens, UniProt P04150); experiment: human glucocorticoid receptor (hGR) transactivation assay; format: cell-based; details: Anta = compound exhibited antagonism; read-out: GR (Anta)
[6] = molecular target: human Farnesoid X receptor (hFXR) (Homo sapiens, UniProt Q96RI1); experiment: human Farnesoid X receptor (hFXR) transactivation assay; format: cell-based; details: Anta = compound exhibited antagonism; read-out: FXR (Anta)
Procedure: Cells were maintained by following manufacturer's instruction. Briefly, FXR cells were maintained in DMEM supplemented with 10% dialyzed FBS, 0.1 mM non-essential amino acids, 25 mM HEPES, 100 μg/ml of hygromycin B, 100 μg/ml of zeocin, 100 units/ml penicillin and 100 μg/ml streptomycin.

[7] = molecular target: human retinoid X receptor alpha (hRXRα) (Homo sapiens, UniProt P19793); experiment: human retinoid X receptor alpha (hRXRα) transactivation assay; format: cell-based; details: Anta = compound exhibited antagonism; read-out: RXRα (Anta)
[8] = molecular target: human Liver X receptor alpha (hLXRα) (Homo sapiens, UniProt Q13133); experiment: human Liver X receptor alpha (hLXRα) transactivation assay; format: cell-based; details: Anta = compound exhibited antagonism; read-out: LXRα (Anta)
[9] = molecular target: human vitamin D receptor (hVDR) (Homo sapiens, UniProt P11473); experiment: human vitamin D receptor (hVDR) transactivation assay; format: cell-based
Procedure: Cells were maintained by following manufacturer's instruction. Briefly, VDR cells were maintained in matrigel-coated tissue culture flasks in DMEM supplemented with 10% dialyzed FBS, 0.1 mM non-essential amino acids, 1 mM sodium pyruvate, 25 mM HEPES, 80 μg/ml of hygromycin B, 80 μg/ml of zeocin, 100 units/ml penicillin and 100 μg/ml streptomycin. […] Assay medium containing DMSO without cells serves as background control.

[10] = molecular target: human Liver X receptor beta (hLXRβ) (Homo sapiens, UniProt P55055); experiment: human Liver X receptor beta (hLXRβ) transactivation assay; format: cell-based; details: Anta = compound exhibited antagonism; read-out: LXRβ (Anta)
[11] = Anta = compound exhibited antagonism, read-out: PPARγ (Anta)

human retinoid X receptor alpha (hRXRα), sequence (P19793 whole entry, looked up): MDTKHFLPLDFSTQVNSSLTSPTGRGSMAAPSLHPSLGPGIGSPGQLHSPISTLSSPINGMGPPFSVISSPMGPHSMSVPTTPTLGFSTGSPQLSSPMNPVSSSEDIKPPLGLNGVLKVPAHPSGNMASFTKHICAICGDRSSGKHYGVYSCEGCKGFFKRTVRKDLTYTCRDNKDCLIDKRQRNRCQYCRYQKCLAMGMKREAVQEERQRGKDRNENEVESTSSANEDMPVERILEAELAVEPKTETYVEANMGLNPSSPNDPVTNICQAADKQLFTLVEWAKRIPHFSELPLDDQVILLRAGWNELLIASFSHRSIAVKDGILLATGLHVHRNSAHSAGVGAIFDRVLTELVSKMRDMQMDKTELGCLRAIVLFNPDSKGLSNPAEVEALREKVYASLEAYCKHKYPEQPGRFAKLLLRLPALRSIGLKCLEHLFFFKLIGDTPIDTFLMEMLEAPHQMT
T1 sequence (O75469 whole entry): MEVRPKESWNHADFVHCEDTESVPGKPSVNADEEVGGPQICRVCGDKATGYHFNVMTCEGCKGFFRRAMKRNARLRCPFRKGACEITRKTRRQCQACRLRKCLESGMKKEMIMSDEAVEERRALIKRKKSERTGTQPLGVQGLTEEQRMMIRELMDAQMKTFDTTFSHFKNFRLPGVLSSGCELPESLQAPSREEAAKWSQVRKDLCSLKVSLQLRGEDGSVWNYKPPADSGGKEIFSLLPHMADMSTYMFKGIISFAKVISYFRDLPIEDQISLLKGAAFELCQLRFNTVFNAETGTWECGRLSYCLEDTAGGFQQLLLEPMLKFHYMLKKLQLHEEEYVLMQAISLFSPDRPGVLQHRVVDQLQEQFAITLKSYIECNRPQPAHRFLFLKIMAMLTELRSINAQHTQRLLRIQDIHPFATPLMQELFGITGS
human retinoid X receptor beta (hRXRβ), sequence (P28702 whole entry, looked up): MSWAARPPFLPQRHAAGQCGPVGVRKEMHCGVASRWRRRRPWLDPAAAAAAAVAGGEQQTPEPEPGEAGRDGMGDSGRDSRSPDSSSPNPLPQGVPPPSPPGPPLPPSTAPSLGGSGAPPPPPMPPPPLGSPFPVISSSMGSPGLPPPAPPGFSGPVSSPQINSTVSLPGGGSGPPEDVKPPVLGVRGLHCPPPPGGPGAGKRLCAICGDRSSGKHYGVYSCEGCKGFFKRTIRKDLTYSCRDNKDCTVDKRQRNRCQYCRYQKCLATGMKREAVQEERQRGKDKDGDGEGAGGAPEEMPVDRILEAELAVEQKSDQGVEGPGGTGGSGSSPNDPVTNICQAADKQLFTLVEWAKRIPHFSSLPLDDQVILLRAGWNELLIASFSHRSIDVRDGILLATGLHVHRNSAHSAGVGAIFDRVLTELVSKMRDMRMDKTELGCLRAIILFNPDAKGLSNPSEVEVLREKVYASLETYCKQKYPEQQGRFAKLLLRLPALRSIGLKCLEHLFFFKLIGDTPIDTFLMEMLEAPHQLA
human glucocorticoid receptor (hGR), sequence (P04150 whole entry, looked up): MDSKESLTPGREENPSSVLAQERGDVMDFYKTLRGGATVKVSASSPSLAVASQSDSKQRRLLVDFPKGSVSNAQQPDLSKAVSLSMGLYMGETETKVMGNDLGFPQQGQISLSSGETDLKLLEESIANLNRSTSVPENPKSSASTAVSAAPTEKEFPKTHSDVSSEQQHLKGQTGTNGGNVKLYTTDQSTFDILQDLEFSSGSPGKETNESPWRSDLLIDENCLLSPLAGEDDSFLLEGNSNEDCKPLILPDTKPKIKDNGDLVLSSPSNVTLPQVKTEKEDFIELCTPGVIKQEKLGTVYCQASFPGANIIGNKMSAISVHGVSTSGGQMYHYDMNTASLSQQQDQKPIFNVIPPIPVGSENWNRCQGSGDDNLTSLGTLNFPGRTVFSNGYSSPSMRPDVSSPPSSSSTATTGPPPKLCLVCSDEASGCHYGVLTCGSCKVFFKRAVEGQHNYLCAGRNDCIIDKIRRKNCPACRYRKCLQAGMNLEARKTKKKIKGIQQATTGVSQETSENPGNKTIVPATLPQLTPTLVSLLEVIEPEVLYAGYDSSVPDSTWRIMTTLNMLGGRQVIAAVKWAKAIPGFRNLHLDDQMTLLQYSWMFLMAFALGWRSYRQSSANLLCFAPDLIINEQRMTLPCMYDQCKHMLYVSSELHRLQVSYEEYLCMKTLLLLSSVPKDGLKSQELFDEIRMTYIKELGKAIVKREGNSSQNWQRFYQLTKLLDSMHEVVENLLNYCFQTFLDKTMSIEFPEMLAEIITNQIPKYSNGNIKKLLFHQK
human Farnesoid X receptor (hFXR), sequence (Q96RI1 whole entry, looked up): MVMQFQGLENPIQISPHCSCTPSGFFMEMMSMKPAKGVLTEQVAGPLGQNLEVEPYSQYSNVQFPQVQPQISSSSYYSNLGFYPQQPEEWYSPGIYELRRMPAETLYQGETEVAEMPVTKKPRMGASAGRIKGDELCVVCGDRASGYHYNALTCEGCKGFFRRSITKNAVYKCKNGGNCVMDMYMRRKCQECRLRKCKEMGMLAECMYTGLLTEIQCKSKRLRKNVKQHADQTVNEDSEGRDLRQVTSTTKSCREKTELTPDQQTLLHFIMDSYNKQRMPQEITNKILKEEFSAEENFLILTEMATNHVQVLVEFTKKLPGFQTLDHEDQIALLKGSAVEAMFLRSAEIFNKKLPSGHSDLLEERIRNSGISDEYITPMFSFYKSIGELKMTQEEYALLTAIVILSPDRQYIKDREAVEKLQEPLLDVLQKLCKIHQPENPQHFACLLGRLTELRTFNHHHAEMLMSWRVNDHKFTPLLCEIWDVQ
human peroxisome proliferator-activated receptor gamma (PPARγ), sequence (P37231 whole entry, looked up): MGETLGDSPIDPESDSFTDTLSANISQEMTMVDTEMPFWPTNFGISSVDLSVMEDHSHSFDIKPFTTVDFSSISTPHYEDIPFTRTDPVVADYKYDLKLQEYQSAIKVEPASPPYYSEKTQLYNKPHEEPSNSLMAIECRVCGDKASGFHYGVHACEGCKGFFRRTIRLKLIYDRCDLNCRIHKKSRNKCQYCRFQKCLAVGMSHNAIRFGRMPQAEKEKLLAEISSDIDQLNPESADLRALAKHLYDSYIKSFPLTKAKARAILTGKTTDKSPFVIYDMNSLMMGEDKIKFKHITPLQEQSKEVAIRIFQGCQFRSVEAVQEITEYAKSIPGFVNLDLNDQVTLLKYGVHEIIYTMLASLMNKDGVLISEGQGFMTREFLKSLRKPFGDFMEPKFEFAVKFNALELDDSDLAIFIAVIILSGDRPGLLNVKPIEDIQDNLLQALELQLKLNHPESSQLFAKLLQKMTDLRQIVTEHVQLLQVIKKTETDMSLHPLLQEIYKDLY
human Liver X receptor beta (hLXRβ), sequence (P55055 whole entry, looked up): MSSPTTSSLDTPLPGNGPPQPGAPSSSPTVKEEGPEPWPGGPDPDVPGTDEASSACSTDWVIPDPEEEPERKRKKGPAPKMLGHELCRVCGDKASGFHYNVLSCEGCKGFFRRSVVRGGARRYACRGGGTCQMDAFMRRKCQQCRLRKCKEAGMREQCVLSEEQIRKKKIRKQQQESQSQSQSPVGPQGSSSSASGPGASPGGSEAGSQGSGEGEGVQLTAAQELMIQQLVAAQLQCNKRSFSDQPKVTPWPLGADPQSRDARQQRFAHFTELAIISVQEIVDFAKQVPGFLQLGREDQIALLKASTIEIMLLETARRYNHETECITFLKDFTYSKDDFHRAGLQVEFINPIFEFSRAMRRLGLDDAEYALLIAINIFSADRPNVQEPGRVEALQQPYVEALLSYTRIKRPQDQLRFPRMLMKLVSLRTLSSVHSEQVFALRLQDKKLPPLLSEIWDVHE
human vitamin D receptor (hVDR), sequence (P11473 whole entry, looked up): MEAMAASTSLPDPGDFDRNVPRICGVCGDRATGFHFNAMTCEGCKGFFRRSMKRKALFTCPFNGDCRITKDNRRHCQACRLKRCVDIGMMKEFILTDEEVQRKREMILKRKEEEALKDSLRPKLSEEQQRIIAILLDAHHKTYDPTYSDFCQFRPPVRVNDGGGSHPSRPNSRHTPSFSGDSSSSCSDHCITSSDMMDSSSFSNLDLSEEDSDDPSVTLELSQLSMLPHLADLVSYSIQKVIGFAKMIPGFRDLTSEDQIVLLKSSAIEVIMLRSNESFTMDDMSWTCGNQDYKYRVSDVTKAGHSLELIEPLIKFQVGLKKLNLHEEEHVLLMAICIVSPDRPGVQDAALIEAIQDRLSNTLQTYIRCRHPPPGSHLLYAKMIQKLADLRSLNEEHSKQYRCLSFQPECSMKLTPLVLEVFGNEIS
human Liver X receptor alpha (hLXRα), sequence (Q13133 whole entry, looked up): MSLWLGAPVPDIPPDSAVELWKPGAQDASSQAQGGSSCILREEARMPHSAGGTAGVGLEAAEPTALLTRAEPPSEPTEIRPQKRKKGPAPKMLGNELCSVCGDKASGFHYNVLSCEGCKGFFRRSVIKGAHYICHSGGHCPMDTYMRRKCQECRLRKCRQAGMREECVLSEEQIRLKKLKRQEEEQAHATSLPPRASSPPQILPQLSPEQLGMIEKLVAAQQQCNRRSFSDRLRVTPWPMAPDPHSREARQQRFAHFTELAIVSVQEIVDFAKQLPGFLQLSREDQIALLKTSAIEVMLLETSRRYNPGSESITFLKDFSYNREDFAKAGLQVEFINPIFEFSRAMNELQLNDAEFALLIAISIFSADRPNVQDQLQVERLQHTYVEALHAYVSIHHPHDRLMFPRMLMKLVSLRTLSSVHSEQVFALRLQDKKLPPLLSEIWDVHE

## COc1ccc(OC)c(-n2nnc(S(=O)(=O)c3ccc(C(C)(C)C)cc3)c2Br)c1 [LC-61, 5-bromo-4-((4-(tert-butyl)phenyl)sulfonyl)-1-(2,5-dimethoxyphenyl)-1H-1,2,3-triazole]
[1]; [11]
  IC50: 12.8 µM

## COc1ccc(Cl)cc1-n1nnc(S(=O)(=O)c2ccc(C(C)C)cc2)c1C [LC-3]
hPXR [2]
  IC50: 0.52 µM

## COc1ccc(Cl)cc1-n1nnc(S(=O)(=O)c2ccc(C(C)(C)C)cc2)c1Br [LC-62, 5-bromo-4-((4-(tert-butyl)phenyl)sulfonyl)-1-(5-chloro-2-methoxyphenyl)-1H-1,2,3-triazole]
[1]; [11]
  IC50: 10.5 µM

## Cc1c(S(=O)(=O)c2ccc(C(C)(C)C)cc2)nnn1-c1cc(O)ccc1O [LC-85, 2-(4-((4-(tert-butyl)phenyl)sulfonyl)-5-methyl-1H-1,2,3-triazol-1-yl)benzene-1,4-diol]
[1]; [11]
  IC50: 12.8 µM
hPXR [2]
  IC50: 3.9 µM
[3]
  IC50: 31 µM

## COc1ccc(OC)c(-n2nnc(S(=O)(=O)c3ccc(C(C)(C)C)c(O)c3)c2C)c1 [LC-88, 2-(tert-butyl)-5-((1-(2,5-dimethoxyphenyl)-5-methyl-1H-1,2,3-triazol-4-yl)sulfonyl)phenol]
hPXR [2]
  EC50: 1.4 µM
HepG2 cells
  IC50: 13 µM

## COc1cc(C(C)=O)c(C)cc1-n1nnc(S(=O)(=O)c2ccc(C(C)(C)C)cc2)c1C [LC-26, 1-(4-(4-((4-(tert-butyl)phenyl)sulfonyl)-5-methyl-1H-1,2,3-triazol-1-yl)-5-methoxy-2-methylphenyl)ethan-1-one]
hPXR [4]
  EC50: 0.16 µM
HepG2 cells; NA = not active
  IC50: 3.4 µM

## COc1ccc(Cl)cc1-c1nc(C)c(S(=O)(=O)c2ccc(C(C)(C)C)cc2)n1C [LC-78, 5-((4-(tert-butyl)phenyl)sulfonyl)-2-(5-chloro-2-methoxyphenyl)-1,4-dimethyl-1H-imidazole]
hPXR [4]
  EC50: 1.4 µM
HepG2 cells; NA = not active
  IC50: 24.4 µM

## COc1cc(Cl)c(Cl)cc1-n1nnc(S(=O)(=O)c2ccc(C(C)(C)C)cc2)c1C [LC-28, 4-((4-(tert-butyl)phenyl)sulfonyl)-1-(4,5-dichloro-2-methoxyphenyl)-5-methyl-1H-1,2,3-triazole]
[1]; [11]
  IC50: 14.4 µM

## COC(=O)Cc1c(S(=O)(=O)c2ccc(C(C)(C)C)cc2)nnn1-c1cc(C)ccc1OC [LC-66, methyl 2-(4-((4-(tert-butyl)phenyl)sulfonyl)-1-(2-methoxy-5-methylphenyl)-1H-1,2,3-triazol-5-yl)acetate]
[3]; Ag = compound exhibited agonism, read-out: RXRβ (Ag)
  EC50: 19.3 µM

## COc1ccc(C)cc1-n1nnc(S(=O)(=O)c2ccc(C(C)C)cc2)c1C [LC-2]
hPXR [2]
  IC50: 0.66 µM

## COc1ccc(OC)c(-c2ncc(S(=O)(=O)c3ccc(C(C)(C)C)cc3)n2C)c1 [LC-70, 5-((4-(tert-butyl)phenyl)sulfonyl)-2-(2,5-dimethoxyphenyl)-1-methyl-1H-imidazole]
[5]
  IC50: 20.4 µM
[1]; [11]
  IC50: 28.3 µM
[6]
  IC50: 14.3 µM
[7]
  IC50: 16.1 µM
HepG2 cells; NA = not active
  IC50: 15.3 µM

## COc1ccc(OC)c(-n2nnc(S(=O)(=O)c3ccc(C(C)(C)C)cc3)c2CCl)c1 [LC-64, 4-((4-(tert-butyl)phenyl)sulfonyl)-5-(chloromethyl)-1-(2,5-dimethoxyphenyl)-1H-1,2,3-triazole]
[5]
  IC50: 5.6 µM
[8]
  IC50: 6.5 µM
[9]
  IC50: 7.3 µM
[1]; [11]
  IC50: 1.5 µM
[10]
  IC50: 4.1 µM
[3]
  IC50: 4.1 µM
[6]
  IC50: 6.3 µM
[7]
  IC50: 5.8 µM
HepG2 cells; NA = not active
  IC50: 7.9 µM

## COc1cc(C(C)=O)c(Cl)cc1-n1nnc(S(=O)(=O)c2ccc(C(C)(C)C)cc2)c1C [LC-35, 1-(4-(4-((4-(tert-butyl)phenyl)sulfonyl)-5-methyl-1H-1,2,3-triazol-1-yl)-2-chloro-5-methoxyphenyl)ethan-1-one]
hPXR [4]
  EC50: 1.3 µM
HepG2 cells; NA = not active
  IC50: 7.2 µM

## COc1cc(C#N)c(Cl)cc1-n1nnc(S(=O)(=O)c2ccc(C(C)(C)C)cc2)c1C [LC-36, 4-(4-((4-(tert-butyl)phenyl)sulfonyl)-5-methyl-1H-1,2,3-triazol-1-yl)-2-chloro-5-methoxybenzonitrile]
hPXR [2]
  EC50: 2.4 µM

## COc1ccc(OC)c(-n2nnc(S(=O)(=O)c3ccc(C(C)(C)C)cc3O)c2C)c1 [LC-84, 5-(tert-butyl)-2-((1-(2,5-dimethoxyphenyl)-5-methyl-1H-1,2,3-triazol-4-yl)sulfonyl)phenol]
hPXR [2]
  EC50: 3.3 µM
HepG2 cells
  IC50: 20.9 µM

## COc1ccc(O)c(-n2nnc(S(=O)(=O)c3ccc(C(C)(C)C)cc3)c2C)c1 [LC-86, 2-(4-((4-(tert-butyl)phenyl)sulfonyl)-5-methyl-1H-1,2,3-triazol-1-yl)-4-methoxyphenol]
[5]
  IC50: 21.4 µM
[8]
  IC50: 29.8 µM
[9]
  IC50: 24.2 µM
[1]; [11]
  IC50: 11.8 µM
hPXR [2]
  IC50: 0.18 µM
[10]
  IC50: 18.9 µM
[3]
  IC50: 17.9 µM
[6]
  IC50: 21.9 µM
[7]
  IC50: 20.6 µM
HepG2 cells
  IC50: 26.1 µM

## COc1ccc(Cl)cc1-n1nnc(S(=O)(=O)c2ccc(C(C)(C)C)cc2)c1N [LC-39, 4-((4-(tert-butyl)phenyl)sulfonyl)-1-(5-chloro-2-methoxyphenyl)-1H-1,2,3-triazol-5-amine]
hPXR [4]
  EC50: 1 µM
HepG2 cells; NA = not active
  IC50: 16.1 µM

## COc1ccc(OC)c(-c2nc(C)c(S(=O)(=O)c3ccc(C(C)(C)C)cc3)[nH]2)c1 [LC-73, 5-((4-(tert-butyl)phenyl)sulfonyl)-2-(2,5-dimethoxyphenyl)-4-methyl-1H-imidazole]
[5]
  IC50: 4.4 µM

## COc1ccc(O)cc1-n1nnc(S(=O)(=O)c2ccc(C(C)(C)C)cc2)c1C [LC-87, 3-(4-((4-(tert-butyl)phenyl)sulfonyl)-5-methyl-1H-1,2,3-triazol-1-yl)-4-methoxyphenol]
hPXR [2]
  EC50: 12 µM

## COc1ccc(Cl)cc1-n1nnc(N(C)c2ccc(C(C)(C)C)cc2)c1C [LC-48, N-(4-(tert-butyl)phenyl)-1-(5-chloro-2-methoxyphenyl)-N,5-dimethyl-1H-1,2,3-triazol-4-amine]
hPXR [4]
  EC50: 0.7 µM
HepG2 cells; NA = not active
  IC50: 33.8 µM

## COc1ccc(C)cc1-n1nnc(S(=O)(=O)c2ccc(C(C)(C)C)cc2)c1CCl [LC-65, 4-((4-(tert-butyl)phenyl)sulfonyl)-5-(chloromethyl)-1-(2-methoxy-5-methylphenyl)-1H-1,2,3-triazole]
hPXR [4]
  EC50: 6.1 µM
HepG2 cells; NA = not active
  IC50: 7 µM

## O=C(Nc1ccccc1)c1cc([N+](=O)[O-])ccc1Cl [GW9662, reference compound]
[1]; PPARγ antagonistic assay, 100 nM rosiglitazone, read-out: IC50
  IC50: 0.241 µM

## COc1ccc(O)c(-n2nnc(S(=O)(=O)c3ccc(C(C)(C)C)c(O)c3)c2C)c1 [LC-83, 2-(4-((4-(tert-butyl)-3-hydroxyphenyl)sulfonyl)-5-methyl-1H-1,2,3-triazol-1-yl)-4-methoxyphenol]
hPXR [2]
  EC50: 5 µM
HepG2 cells
  IC50: 16.2 µM

## COc1ccc(OC)c(-n2nnc(S(=O)(=O)c3ccc(C(C)C)cc3)c2C)c1 [LC-4]
hPXR [2]
  IC50: 0.63 µM
